We go through eight compounds from ChEMBL document CHEMBL1138763 (J Med Chem, 2004).

Assay [1] deals with Prostaglandin G/H synthase 1 (Homo sapiens, UniProt P23219). The assay can be described thus: In vitro inhibitory concentration against Prostaglandin G/H synthase 1 in human whole blood assay. Format: tissue-based.
For assay [2], the target named is T1, Prostaglandin G/H synthase 2 (Homo sapiens, UniProt P35354).
T1 sequence (P35354 whole entry): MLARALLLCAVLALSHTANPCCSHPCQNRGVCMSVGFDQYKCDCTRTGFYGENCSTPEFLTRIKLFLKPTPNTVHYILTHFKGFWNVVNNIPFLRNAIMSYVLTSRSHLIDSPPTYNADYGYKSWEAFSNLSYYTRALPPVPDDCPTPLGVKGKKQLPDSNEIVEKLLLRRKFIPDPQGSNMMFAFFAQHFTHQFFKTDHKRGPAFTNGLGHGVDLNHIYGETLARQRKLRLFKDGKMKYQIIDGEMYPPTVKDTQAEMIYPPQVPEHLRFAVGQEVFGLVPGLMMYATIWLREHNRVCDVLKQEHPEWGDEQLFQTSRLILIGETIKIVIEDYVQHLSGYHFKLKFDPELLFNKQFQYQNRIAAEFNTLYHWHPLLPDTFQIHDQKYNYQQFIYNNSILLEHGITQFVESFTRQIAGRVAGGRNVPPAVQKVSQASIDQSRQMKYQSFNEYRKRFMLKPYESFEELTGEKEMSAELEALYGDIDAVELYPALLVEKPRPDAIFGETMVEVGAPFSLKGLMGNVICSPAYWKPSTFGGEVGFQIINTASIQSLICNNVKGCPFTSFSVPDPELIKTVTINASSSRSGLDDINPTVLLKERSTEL
The assay is classed as tissue-based, Blood.
Description: In vitro inhibitory concentration against Prostaglandin G/H synthase 2 in human whole blood assay

Molecules are shown by their SMILES. Some results are limits rather than exact numbers.

Chain of Prostaglandin G/H synthase 1 (P23219 whole entry): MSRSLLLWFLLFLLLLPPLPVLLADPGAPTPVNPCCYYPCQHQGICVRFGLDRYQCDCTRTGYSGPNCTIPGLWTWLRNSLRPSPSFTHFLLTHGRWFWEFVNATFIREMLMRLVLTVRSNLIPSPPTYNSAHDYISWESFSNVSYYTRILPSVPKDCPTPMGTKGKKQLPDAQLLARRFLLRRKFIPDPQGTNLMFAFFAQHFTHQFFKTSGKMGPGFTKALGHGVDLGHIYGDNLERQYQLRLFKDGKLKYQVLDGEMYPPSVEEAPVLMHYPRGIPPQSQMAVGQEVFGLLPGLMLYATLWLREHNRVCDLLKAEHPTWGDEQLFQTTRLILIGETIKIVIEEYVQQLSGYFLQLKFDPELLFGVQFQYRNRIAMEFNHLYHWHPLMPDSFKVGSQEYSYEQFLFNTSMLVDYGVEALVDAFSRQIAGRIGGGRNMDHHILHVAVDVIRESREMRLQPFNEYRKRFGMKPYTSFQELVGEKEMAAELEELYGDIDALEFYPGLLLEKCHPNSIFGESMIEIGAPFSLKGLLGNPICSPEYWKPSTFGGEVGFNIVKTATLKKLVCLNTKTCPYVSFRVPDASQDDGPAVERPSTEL

In the case of `Cc1cc(C)c(S(N)(=O)=O)c(C)c1-c1noc(C)c1-c1ccccc1`, the IC50 in assay [1] and in assay [2] was over 100 µM in each case.
With `Cc1onc(-c2ccc(Cl)o2)c1-c1ccc(S(N)(=O)=O)cc1`, the IC50 in assay [1] and in assay [2] was over 100 µM each time.
Consider `COc1cc(OC)c(-c2noc(C)c2-c2ccccc2)c(OC)c1`, for which the IC50 in assay [1] and in assay [2] was over 100 µM in each case.
On to `COc1cc(OC)c(-c2noc(C)c2-c2ccc(S(N)(=O)=O)cc2)c(OC)c1Cl`, for which the IC50 in assay [1] and in assay [2] was over 100 µM each time.
In the case of `COc1cc(OC)c(-c2noc(C)c2-c2ccccc2)c(OC)c1Cl`, the half-inhibitory concentration (IC50) in assay [1] and in assay [2] was over 100 µM each time.
Turning to `Cc1cc(C)c(S(N)(=O)=O)c(C)c1-c1noc(C)c1-c1ccc(S(N)(=O)=O)cc1`, the IC50 in assay [1] and in assay [2] was over 100 µM each time.
In assay [2], `Cc1onc(-c2ccc(Cl)o2)c1-c1ccccc1` came in with an IC50 of over 100 µM.
As for `Cc1cc(C)c(-c2noc(C)c2-c2ccccc2)c(C)c1`, the IC50 in assay [1] and in assay [2] was over 100 µM throughout.
